These results are taken from US10144730B2, “Inhibitors of c-Jun-N-terminal kinase (JNK)” (Dana-Farber Cancer Institute, Inc., priority 2011, dated 2018).

Test [1] concerns NF-kB nuclear translocation. Description: High-throughput microscopy, NF-kB nuclear translocation. Format: cell-based. The settings on record: Homo sapiens, A-375, A375 cells, TNF-α stimulation, read-out: Cellular EC50 NF-kB. As for the experimental part:
(§1) A375 cells were stimulated with anisomycin (FIGS. 14A and 14C to 14F), IGF-1 (FIG. 14B), IL-6 (FIG. 14G), and TNF-α (FIG. 14H) for sixty minutes. The output of multiple signaling pathways was measured using high throughput microscopy at multiple concentrations of four JNK inhibitors and a control compound specific to each pathway DMSO (FIG. 14A), MK2206 (allosteric Akt inhibitor, Haoyuan Chemexpress Co., Limited. Hirai, et al., 2010) (FIG. 14B), PD0325901 (allosteric Mek inhibitor, Haoyuan Chemexpress Co., Limited. Barrett, et al., 2008) (FIGS. 14C and 14D), SB239063 (ATP-competitive p38 inhibitor, Haoyuan Chemexpress Co., Limited. Underwood et al., 2000) (FIGS. 14E and 14F), KIN001-040 (ATP-competitive JAK1,2,3 inhibitor, Haoyuan Chemexpress Co., Limited. Thompson et al., 2002) (FIG. 14G), and KIN001-208 (IKK inhibitor VIII, Haoyuan Chemexpress Co., Limited., Murata, et al., 2004) (FIG. 14H).
(§2) Cells were plated at 7500 cells/well in 96-well microscopy plates (Corning) in recommended media for 24 hours, and then starved in media lacking serum for 16 hours. Cells were pre-treated for 180 minutes with 10-fold stock solutions of JNK inhibitors and for 10 min with control compounds MK2206, PD0325901, SB239063, KIN040, and KIN208 and treated with 10-fold stock solutions of IGF-1, IL-6, TNF-α (all PeproTech), or anisomycin for 60 minutes. Cells were fixed in 2% paraformaldehyde for 10 min at room temperature and washed with PBS-T (Phosphate Buffered Saline, 0.1% Tween 20). Cells were permeabilized in methanol for 10 min at room temperature, washed with PBS-T, and blocked in Odyssey Blocking Buffer (LI-COR Biosciences) for 1 hour at room temperature. Cells were incubated overnight at 4° C. with antibody specific for Erk1/2(pT202/pY204), Akt(pS473), c-Jun(pS73), pP38(T180/Y182) and pSTAT3(Y705) (Cell Signaling Technology), pRSK1(S380) and pMSK1(S376) (Epitomics), and NF-κB (Santa Cruz Biotechnology) diluted 1:400 in Odyssey Blocking Buffer. Cells were washed three times in PBS-T and incubated with rabbit-specific secondary antibody labeled with Alexa Fluor 647 (Invitrogen) diluted 1:2000 in Odyssey Blocking Buffer. Cells were washed once in PBS-T and once in PBS and incubated in 250 ng/ml Hoechst 33342 (Invitrogen) and 1:1000 Whole Cell Stain (blue; Thermo Scientific) solution. Cells were washed twice with PBS and imaged in an imageWoRx high-throughput microscope (Applied Precision). Data were plotted using DataPflex. […]

Test [2] relates to phosphorylation of Akt. Description: High-throughput microscopy, phosphorylation of Akt. The format is cell-based. The following applies: Homo sapiens, A-375, A375 cells, IGF-1 stimulation, read-out: Cellular EC50 pAkt. As for the experimental part:
as §1, §2

In test [3] the test system is phosphorylation of p38. Description: High-throughput microscopy, phosphorylation of p38. Format: cell-based. The settings on record: Homo sapiens, A-375, A375 cells, anisomycin stimulation, read-out: Cellular EC50 pP38. As for the experimental part: as §1, §2
Test [4] concerns phosphorylation of RSK. Description: High-throughput microscopy, phosphorylation of RSK. The following applies: Homo sapiens, A-375, A375 cells, anisomycin stimulation, read-out: Cellular EC50 pRSK. Format: cell-based. As for the experimental part: as §1, §2
The target of test [5] is additional kinase targets. Kind of test: Follow-up enzymatic IC50 or Kd on potential additional kinase targets. The following applies: further biochemical and binding assays. An excerpt: Scores were obtained from the profiling against a […] using Kinome Scan™ technology as illustrated in FIG. 11.
To complement the KiNativ profiling, the in vitro kinase selectivity of several key compounds was comprehensively evaluated by two complementary approaches: a kinase-binding assays against a panel of 442 distinct kinases using the KINOMEscan methodology (DiscoverX) and a standard radioactivity-based enzymatic assays against a panel of 124 kinases (The National Centre for Protein Kinase Profiling in Dundee). […] It was attempted to confirm all these potent binding targets using either an enzymatic kinase assay or through the measurement of a dissociation constant to the kinase in question.

In test [6] the target is JNK1 (Homo sapiens, UniProt P45983). Description: Biochemical JNK1 kinase inhibition (Z'-lyte format). The following applies: Table 2.
JNK1, sequence (P45983 whole entry): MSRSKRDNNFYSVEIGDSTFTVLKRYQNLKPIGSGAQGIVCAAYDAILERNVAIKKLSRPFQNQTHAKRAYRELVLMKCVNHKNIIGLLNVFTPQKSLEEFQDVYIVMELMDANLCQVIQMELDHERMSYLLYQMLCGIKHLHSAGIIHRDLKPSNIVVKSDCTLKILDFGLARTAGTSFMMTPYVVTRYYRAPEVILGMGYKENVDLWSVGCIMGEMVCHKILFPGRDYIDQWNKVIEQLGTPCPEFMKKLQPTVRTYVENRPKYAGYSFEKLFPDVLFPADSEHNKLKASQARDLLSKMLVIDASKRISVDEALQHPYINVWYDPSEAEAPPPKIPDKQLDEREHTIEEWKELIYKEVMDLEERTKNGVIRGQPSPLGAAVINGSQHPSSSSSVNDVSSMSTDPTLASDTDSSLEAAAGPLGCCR
Test [7] has as its target JNK2 (Homo sapiens, UniProt P45984). Kind of test: Biochemical JNK2 kinase inhibition (Z'-lyte format). The settings on record: Table 2.
For test [8], the target named is JNK3 (Homo sapiens, UniProt P53779). Kind of test: Biochemical JNK3 kinase inhibition (Z'-lyte format). The following applies: Table 2.
JNK3, sequence (P53779 whole entry): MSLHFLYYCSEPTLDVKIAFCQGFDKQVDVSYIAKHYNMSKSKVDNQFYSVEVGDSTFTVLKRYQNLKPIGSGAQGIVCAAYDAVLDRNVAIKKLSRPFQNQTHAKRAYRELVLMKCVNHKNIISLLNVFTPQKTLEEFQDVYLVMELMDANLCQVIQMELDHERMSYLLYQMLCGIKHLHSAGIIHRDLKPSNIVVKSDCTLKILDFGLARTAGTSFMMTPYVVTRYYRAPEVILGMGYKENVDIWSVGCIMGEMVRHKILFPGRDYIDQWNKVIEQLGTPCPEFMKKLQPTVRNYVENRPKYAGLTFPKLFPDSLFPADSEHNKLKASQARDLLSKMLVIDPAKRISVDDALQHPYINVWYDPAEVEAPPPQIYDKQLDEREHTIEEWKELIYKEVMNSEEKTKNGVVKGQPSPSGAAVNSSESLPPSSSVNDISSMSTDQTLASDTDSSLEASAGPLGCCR
Test [9] deals with IRAK1 (Homo sapiens, UniProt P51617). Description: IRAK1 biochemical kinase assay. The settings on record: biochemical / follow-up enzymatic assay; read-out: IC50 against IRAK1.
IRAK1, sequence (P51617 whole entry): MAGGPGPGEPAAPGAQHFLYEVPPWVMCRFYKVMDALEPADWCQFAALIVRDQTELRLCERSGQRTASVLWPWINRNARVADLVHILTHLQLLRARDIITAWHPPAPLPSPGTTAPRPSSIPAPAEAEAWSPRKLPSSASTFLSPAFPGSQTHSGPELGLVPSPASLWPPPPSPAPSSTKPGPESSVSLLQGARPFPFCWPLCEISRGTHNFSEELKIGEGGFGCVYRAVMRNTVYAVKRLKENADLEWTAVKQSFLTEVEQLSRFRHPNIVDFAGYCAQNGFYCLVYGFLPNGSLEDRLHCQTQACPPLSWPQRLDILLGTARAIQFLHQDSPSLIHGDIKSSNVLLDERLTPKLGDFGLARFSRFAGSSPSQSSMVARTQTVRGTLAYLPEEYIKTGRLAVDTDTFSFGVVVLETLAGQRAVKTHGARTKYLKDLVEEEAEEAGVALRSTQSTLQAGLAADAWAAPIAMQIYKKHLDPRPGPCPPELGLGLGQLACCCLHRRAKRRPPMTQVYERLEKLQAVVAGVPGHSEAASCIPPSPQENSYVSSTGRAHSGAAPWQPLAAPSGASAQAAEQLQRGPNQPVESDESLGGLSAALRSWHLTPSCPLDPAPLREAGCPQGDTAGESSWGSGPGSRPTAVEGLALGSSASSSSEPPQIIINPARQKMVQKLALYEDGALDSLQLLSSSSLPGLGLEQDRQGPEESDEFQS
The target of test [10] is T1, HIPK4 (Homo sapiens, UniProt Q8NE63).
T1 sequence (Q8NE63 1-616): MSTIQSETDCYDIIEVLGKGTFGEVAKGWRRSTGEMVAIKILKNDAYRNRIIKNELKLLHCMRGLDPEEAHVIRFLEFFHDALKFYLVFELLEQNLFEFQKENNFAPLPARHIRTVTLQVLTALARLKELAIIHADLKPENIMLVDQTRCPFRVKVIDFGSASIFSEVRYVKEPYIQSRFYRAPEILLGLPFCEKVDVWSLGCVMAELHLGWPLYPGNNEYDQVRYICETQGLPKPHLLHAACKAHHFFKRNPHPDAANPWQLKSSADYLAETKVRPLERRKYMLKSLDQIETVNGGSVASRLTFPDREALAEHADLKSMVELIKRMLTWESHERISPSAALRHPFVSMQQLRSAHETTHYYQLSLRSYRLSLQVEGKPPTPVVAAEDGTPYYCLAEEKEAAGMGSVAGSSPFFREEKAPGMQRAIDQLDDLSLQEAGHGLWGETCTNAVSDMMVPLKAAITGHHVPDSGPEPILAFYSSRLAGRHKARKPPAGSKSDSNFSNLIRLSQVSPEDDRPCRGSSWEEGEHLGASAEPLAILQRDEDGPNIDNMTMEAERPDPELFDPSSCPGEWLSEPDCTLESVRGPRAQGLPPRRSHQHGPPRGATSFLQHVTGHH
Kind of test: HIPK4 follow-up enzymatic assay. The settings on record: follow-up enzymatic assay (FIG. 12). Format: biochemical. An excerpt: This high in vitro selectivity however differed markedly from the large number of targets detected by KiNativ.

In test [11] the target is panel of 442 distinct kinases. Kind of test: KINOMEscan kinase-binding panel. The following applies: screening concentration of 1 μM.

JNK2, sequence (P45984 whole entry): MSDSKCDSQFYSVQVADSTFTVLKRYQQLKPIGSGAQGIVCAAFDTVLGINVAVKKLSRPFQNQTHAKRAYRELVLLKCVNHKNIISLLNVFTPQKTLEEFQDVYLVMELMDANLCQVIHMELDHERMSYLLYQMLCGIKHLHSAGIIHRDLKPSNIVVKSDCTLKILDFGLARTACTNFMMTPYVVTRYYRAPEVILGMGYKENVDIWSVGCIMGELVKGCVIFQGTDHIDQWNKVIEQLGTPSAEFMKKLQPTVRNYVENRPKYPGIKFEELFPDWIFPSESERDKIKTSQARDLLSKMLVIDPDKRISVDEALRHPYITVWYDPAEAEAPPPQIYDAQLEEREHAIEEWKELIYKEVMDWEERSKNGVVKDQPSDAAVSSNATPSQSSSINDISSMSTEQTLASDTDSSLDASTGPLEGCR

As usually defined, the EC50 is the concentration that produces a half-maximal response. Turning to `Cc1cc(NC(=O)c2cccc(NC(=O)/C=C/CN(C)C)c2)ccc1Nc1nccc(-c2cccnc2)n1` [JNK-IN-8], the EC50 in test [1], in test [2], in test [3] and in test [4] was greater than 10000 nM each time. In addition, in [5], the “IC50 or Kd of any further target” value was no less than 1000 nM.
By IC50 is commonly meant the concentration that inhibits the measured activity by half. As for `CN(C)C/C=C/C(=O)Nc1cccc(C(=O)Nc2ccc(Nc3nccc(/C(C#N)=C4\Nc5ccccc5S4)n3)cc2)c1` [JNK-IN-12], the IC50 in test [6] amounted to 13 nM; in test [7] it was 11.3 nM; in [8], 11 nM; in [9], 37.6 nM; in test [10], 57.1 nM. Further, the EC50 in [1], in test [2], in [3] and in test [4] was greater than 10000 nM in each case. Also, the “KINOMEscan S score (ratio number of kinases inhibited more than 90 percent)” value in test [11] stood at 0.025.
